Read-outs that look alike come from different tables or passages of the source.
How the values were obtained:
Assay in all cases: Further analysis of a plurality of inhibitors and a plurality of kinases (Table 5 inhibition results)
Assay type in all cases: biochemical
Design in all cases: scale not given here
[1] = target: kinases of Table 5 (Homo sapiens, UniProt Q9Y6E0); conditions: inhibitor 100 uM; for Inhibition level: kinase STK24
Description: (§1) The wash solution is then discarded.

[2] = target: kinases of Table 5 (Homo sapiens, UniProt P68400)
Sequence of kinases of Table 5 (Homo sapiens, UniProt P68400) (P68400 whole entry): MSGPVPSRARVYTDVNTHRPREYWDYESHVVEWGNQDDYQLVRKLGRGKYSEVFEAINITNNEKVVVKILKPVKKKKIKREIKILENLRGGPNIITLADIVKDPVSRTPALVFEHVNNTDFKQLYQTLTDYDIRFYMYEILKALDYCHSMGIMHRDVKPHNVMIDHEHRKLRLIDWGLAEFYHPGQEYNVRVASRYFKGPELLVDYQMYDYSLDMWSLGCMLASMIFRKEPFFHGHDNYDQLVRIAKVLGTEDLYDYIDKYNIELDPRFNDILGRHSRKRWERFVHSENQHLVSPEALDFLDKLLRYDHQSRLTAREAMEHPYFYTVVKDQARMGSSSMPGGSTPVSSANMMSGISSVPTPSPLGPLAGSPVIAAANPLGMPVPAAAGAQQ
Description: as §1

[3] = target: kinases of Table 5 (Homo sapiens, UniProt Q9UIK4); conditions: for Inhibition level: kinase DAPK2; for Inhibition Results (Level): kinase DAPK2 (Part II, plate H3, Domain 1)
Sequence of kinases of Table 5 (Homo sapiens, UniProt Q9UIK4) (Q9UIK4 whole entry): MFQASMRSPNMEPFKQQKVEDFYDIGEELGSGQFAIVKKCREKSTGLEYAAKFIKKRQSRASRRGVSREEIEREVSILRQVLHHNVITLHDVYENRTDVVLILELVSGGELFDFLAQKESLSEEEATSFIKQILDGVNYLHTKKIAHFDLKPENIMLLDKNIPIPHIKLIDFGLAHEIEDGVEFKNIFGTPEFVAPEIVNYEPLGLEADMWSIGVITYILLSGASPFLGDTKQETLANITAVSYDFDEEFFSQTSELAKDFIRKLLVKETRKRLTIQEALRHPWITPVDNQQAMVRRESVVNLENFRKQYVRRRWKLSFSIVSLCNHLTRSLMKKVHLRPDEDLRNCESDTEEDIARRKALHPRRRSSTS
Description: as §1

[4] = target: kinases of Table 5 (Homo sapiens, UniProt Q05655); conditions: for Inhibition level: kinase PRKCD; for Inhibition Results (Level): kinase PRKCD (Part II, plate B2, Domain 0)
Description: as §1

[5] = target: T1, kinases of Table 5 (Homo sapiens, UniProt O14965); conditions: kinase STK6 (Part I, plate C6, Domain 1)
T1 sequence (O14965 1-403): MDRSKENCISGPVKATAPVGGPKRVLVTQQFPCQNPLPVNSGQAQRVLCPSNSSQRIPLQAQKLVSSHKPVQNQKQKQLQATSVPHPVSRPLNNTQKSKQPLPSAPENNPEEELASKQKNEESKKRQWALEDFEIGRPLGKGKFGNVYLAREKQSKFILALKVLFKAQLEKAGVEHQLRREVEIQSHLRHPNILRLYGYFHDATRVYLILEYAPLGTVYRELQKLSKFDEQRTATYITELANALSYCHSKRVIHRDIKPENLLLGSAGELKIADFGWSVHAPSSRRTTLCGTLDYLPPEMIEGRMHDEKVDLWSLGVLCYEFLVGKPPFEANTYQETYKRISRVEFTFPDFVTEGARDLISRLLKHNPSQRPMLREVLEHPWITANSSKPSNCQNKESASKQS
Description: as §1

[6] = target: kinases of Table 5 (Homo sapiens, UniProt P11309)
Sequence of kinases of Table 5 (Homo sapiens, UniProt P11309) (P11309 whole entry): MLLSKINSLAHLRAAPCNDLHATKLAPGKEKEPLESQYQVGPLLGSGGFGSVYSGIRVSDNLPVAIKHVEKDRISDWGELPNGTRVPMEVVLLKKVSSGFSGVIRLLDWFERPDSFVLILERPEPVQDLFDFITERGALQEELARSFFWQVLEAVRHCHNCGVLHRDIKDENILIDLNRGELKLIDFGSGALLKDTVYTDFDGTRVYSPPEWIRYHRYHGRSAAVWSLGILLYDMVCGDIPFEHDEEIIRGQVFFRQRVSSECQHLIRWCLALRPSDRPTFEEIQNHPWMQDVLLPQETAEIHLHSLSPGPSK
Description: as §1

[7] = target: kinases of Table 5 (Homo sapiens, UniProt Q14289); conditions: kinase PTK2B (Part I, plate G5, Domain 1)
Description: as §1

[8] = target: kinases of Table 5 (Homo sapiens, UniProt Q7KZI7); conditions: kinase MARK2 (Part I, plate C4, Domain 1); inhibitor 100 uM
Sequence of kinases of Table 5 (Homo sapiens, UniProt Q7KZI7) (Q7KZI7 whole entry): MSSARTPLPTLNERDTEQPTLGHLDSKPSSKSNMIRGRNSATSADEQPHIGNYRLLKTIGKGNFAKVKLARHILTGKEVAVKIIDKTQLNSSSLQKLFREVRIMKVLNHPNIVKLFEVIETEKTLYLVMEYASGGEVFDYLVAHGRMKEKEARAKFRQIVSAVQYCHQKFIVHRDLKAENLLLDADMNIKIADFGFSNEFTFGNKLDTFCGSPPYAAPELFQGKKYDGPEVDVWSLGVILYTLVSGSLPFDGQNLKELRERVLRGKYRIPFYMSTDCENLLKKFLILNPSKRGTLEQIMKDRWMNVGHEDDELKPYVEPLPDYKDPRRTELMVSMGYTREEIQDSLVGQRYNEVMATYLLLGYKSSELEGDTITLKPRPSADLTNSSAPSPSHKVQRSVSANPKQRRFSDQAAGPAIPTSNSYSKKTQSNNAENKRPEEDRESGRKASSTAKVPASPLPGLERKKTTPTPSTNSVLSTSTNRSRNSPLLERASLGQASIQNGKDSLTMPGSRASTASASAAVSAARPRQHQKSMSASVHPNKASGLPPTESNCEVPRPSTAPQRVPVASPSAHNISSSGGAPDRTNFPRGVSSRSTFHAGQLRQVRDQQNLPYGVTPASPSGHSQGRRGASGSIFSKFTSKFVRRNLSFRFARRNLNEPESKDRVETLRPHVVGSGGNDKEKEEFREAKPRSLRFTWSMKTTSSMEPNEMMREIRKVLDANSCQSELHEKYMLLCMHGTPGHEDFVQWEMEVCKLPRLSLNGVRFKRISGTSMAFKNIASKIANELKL
Description: as §1

[9] = target: T2, kinases of Table 5 (Homo sapiens, UniProt Q13043); conditions: for Inhibition level: kinase STK4; for Inhibition Results (Level): kinase STK4 (Part II, plate D6, Domain 1)
T2 sequence (Q13043 1-487): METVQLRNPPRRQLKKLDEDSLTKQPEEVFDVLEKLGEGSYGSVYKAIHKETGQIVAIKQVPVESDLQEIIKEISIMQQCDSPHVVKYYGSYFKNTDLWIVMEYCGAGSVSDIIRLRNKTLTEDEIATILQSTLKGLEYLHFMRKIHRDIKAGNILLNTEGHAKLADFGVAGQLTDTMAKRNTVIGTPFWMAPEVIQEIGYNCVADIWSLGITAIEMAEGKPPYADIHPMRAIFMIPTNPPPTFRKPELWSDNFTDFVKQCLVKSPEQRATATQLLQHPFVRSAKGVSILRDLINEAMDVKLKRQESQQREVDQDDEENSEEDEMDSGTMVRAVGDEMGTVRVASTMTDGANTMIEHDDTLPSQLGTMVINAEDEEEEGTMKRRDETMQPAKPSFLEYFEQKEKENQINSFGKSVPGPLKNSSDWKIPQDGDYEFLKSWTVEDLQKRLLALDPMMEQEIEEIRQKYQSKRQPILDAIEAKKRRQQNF
Description: as §1

[10] = target: kinases of Table 5 (Homo sapiens, UniProt P16591); conditions: inhibitor 100 uM; for Inhibition level: kinase FER; for Inhibition Results (Level): kinase FER (Part II, plate H5, Domain 1)
Sequence of kinases of Table 5 (Homo sapiens, UniProt P16591) (P16591 whole entry): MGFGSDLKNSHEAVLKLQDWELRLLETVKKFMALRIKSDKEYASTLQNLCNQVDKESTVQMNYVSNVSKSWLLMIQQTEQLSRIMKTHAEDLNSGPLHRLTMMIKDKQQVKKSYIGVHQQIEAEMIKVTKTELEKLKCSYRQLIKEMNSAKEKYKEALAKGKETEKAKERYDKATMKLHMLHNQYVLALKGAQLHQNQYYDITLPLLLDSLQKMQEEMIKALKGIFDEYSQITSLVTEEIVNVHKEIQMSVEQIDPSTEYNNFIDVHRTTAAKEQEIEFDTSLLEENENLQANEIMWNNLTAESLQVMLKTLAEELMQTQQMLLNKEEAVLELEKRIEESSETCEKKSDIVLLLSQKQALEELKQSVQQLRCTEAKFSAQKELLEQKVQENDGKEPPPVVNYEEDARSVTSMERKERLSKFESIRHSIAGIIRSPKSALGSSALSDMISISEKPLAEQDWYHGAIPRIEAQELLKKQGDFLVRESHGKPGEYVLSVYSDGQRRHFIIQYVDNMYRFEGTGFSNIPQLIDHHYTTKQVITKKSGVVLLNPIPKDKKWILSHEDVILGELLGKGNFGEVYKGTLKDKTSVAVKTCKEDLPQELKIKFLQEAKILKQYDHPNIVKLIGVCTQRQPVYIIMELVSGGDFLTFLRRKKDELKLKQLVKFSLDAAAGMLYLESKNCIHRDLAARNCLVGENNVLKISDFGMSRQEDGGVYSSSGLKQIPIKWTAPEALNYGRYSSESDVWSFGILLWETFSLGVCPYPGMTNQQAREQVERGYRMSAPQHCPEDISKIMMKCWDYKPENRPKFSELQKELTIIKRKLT
Description: as §1

[11] = target: kinases of Table 5 (Homo sapiens, UniProt P21802); conditions: for Inhibition level: kinase FGFR2
Sequence of kinases of Table 5 (Homo sapiens, UniProt P21802) (P21802 22-821): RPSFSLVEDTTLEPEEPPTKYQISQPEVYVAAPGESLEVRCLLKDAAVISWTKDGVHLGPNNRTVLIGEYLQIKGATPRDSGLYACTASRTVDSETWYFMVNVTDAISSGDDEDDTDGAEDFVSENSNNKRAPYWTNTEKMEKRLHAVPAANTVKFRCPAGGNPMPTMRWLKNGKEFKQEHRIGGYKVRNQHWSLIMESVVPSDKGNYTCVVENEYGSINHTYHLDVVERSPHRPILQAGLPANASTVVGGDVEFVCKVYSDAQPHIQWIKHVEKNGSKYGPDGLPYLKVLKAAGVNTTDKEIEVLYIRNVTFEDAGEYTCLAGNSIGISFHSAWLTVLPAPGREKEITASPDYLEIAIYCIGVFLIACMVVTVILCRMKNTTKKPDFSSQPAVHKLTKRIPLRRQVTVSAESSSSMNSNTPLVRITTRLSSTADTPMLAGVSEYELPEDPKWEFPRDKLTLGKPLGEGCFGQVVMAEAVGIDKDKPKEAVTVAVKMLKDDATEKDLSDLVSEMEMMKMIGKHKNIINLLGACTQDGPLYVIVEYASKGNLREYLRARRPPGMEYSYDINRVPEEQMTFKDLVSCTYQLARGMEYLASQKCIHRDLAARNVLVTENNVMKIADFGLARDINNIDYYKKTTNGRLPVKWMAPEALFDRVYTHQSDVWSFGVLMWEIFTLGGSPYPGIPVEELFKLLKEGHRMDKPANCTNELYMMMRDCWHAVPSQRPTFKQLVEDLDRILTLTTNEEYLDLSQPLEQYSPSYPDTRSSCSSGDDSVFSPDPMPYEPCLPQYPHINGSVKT
Description: as §1

[12] = target: kinases of Table 5 (Homo sapiens, UniProt O75914); conditions: for Inhibition level: kinase PAK3; for Inhibition Results (Level): kinase PAK3 (Part II, plate D4, Domain 1)
Description: as §1

[13] = target: kinases of Table 5 (Homo sapiens, UniProt P37173); conditions: kinase TGFBR2 (Part I, plate C7, Domain 1)
Description: as §1

[14] = target: kinases of Table 5 (Homo sapiens, UniProt P07949); conditions: for Inhibition level: kinase RET
Sequence of kinases of Table 5 (Homo sapiens, UniProt P07949) (P07949 29-1114): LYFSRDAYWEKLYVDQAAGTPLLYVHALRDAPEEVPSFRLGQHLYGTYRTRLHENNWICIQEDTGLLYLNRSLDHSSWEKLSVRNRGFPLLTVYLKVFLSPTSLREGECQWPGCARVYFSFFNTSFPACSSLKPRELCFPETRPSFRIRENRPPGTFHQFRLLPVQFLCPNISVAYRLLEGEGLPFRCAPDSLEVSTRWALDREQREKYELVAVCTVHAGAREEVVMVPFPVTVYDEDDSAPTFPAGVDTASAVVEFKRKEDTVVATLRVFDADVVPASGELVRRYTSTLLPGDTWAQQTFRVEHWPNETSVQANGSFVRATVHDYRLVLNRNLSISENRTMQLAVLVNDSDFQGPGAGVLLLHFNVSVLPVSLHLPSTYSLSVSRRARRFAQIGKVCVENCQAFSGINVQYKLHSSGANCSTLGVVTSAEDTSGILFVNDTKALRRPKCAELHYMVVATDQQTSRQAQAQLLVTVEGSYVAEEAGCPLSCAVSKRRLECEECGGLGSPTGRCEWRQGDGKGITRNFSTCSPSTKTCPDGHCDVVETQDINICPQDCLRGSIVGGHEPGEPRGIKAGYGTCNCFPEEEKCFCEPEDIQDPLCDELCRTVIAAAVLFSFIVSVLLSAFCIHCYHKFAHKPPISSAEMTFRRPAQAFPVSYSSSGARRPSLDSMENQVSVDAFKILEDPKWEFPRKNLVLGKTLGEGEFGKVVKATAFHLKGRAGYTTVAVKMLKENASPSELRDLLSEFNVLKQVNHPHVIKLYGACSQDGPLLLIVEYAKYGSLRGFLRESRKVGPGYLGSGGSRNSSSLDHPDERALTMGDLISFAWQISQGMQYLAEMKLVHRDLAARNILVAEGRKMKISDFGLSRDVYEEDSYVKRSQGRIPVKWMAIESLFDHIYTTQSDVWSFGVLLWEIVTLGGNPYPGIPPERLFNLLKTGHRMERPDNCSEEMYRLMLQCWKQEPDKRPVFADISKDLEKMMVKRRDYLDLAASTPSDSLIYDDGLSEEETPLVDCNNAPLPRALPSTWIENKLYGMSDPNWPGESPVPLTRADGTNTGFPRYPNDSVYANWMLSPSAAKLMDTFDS
Description: as §1

[15] = target: kinases of Table 5 (Homo sapiens, UniProt Q13627); conditions: kinase DYRK1A (Part I, plate G6, Domain 1)
Description: as §1

[16] = kinase CSNK2A1, inhibitor 100 uM
[17] = kinase PIM1 (Part I, plate C2, Domain 1), inhibitor 100 uM
[18] = kinase FGFR2 (Part I, plate G8, Domain 1), inhibitor 100 uM
[19] = kinase CSNK2A1, concentration not given
[20] = kinase FGFR2 (Part II, plate B4, Domain 1), inhibitor 100 uM

Sequence of kinases of Table 5 (Homo sapiens, UniProt Q9Y6E0) (Q9Y6E0 whole entry): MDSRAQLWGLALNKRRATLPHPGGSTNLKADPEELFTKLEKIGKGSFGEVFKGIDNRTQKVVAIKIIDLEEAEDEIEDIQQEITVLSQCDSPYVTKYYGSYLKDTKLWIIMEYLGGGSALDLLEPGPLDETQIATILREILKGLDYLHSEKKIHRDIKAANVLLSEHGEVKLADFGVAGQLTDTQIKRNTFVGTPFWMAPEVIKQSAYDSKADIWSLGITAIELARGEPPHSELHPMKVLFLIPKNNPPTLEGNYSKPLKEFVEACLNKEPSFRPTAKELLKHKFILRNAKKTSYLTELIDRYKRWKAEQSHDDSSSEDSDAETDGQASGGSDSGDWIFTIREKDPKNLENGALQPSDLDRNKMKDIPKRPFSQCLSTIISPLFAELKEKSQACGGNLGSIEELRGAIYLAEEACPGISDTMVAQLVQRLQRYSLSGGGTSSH

Inhibition level [1] | Inhibition level [2, 16] | Inhibition level ([3]; inhibitor 100 uM) | Inhibition level ([4]; inhibitor 100 uM) | Inhibition Results (Level) ([5]; inhibitor 100 uM) | Inhibition Results (Level) [6, 17] | Inhibition Results (Level) ([7]; inhibitor 100 uM) | Inhibition Results (Level) [8] | Inhibition level ([9]; inhibitor 100 uM) | Inhibition level [10] | Inhibition Results (Level) [11, 18] | Inhibition level ([11]; inhibitor 100 uM) | Inhibition level ([12]; inhibitor 100 uM) | Inhibition Results (Level) ([13]; inhibitor 100 uM) | Inhibition level ([14]; inhibitor 100 uM) | Inhibition Results (Level) ([15]; inhibitor 100 uM) | Inhibition level ([3]; concentration not given) | Inhibition level ([9]; concentration not given) | Structure (SMILES) | other results
1 | 2 | 0 | 0 | 0 | 1 | 2 | 2 | 1 | 1 | 2 | 2 | 2 | 2 | 2 | 0 | – | – | COc1cc2ncnc(Nc3cccc(Cl)c3)c2cc1OC [AG 1478] | –
2 | 2 | 2 | 0 | 2 | 2 | 2 | 2 | 0 | 2 | 2 | 2 | 2 | 2 | 2 | 2 | 0 | 0 | O=c1c(-c2ccc(O)cc2)coc2cc(O)cc(O)c12 [Genistein] | Inhibition level [2, 19]: 0; Inhibition level ([4]; concentration not given): 0; Inhibition Results (Level) ([5]; inhibitor <3.7 mM): 0; Inhibition Results (Level) ([6]; kinase PIM1 (Part I, plate C2, Domain 1), inhibitor <3.7 mM): 0; Inhibition Results (Level) ([11]; kinase FGFR2 (Part I, plate G8, Domain 1), inhibitor <3.7 mM): 0; Inhibition level ([11]; concentration not given): 1; Inhibition level ([12]; concentration not given): 0; Inhibition Results (Level) ([13]; inhibitor <3.7 mM): 1; Inhibition level ([14]; concentration not given): 0; Inhibition Results (Level) ([15]; inhibitor <3.7 mM): 1
– | – | – | – | 0 | 2 | 1 | 2 | – | – | 2 | – | – | 2 | – | 2 | – | – | O=S(=O)(NCCNC/C=C/c1ccc(Br)cc1)c1cccc2cnccc12 [H-89] | Inhibition Results (Level) ([1]; kinase STK24 (Part II, plate F11, Domain 0)): 2; Inhibition Results (Level) ([2]; kinase CSNK2A1 (Part II, plate D9, Domain 0), inhibitor 100 uM): 0; Inhibition Results (Level) ([3]; inhibitor 100 uM): 2; Inhibition Results (Level) ([4]; inhibitor 100 uM): 1; Inhibition Results (Level) ([9]; inhibitor 100 uM): 2; Inhibition Results (Level) [10]: 2; Inhibition Results (Level) [11, 20]: 2; Inhibition Results (Level) ([12]; inhibitor 100 uM): 2; Inhibition Results (Level) ([14]; kinase RET (Part II, plate B7, Domain 1), inhibitor 100 uM): 0
2 | 2 | 2 | 0 | 2 | 2 | 2 | 2 | 2 | 2 | 2 | 2 | 2 | 2 | 2 | 1 | – | – | CC(C)(C)n1nc(-c2ccc(Cl)cc2)c2c(N)ncnc21 [PP2] | –
2 | 2 | 2 | 0 | 2 | 0 | 2 | 2 | 2 | 2 | 2 | 2 | 2 | 2 | 0 | 2 | 2 | 0 | Cn1cc(C2=C(c3cn(CCCSC(=N)N)c4ccccc34)C(=O)NC2=O)c2ccccc21 [Ro-31-8220] | Inhibition level [2, 19]: 0; Inhibition level ([4]; concentration not given): 2; Inhibition Results (Level) ([5]; inhibitor 90 uM): 0; Inhibition Results (Level) ([6]; kinase PIM1 (Part I, plate C2, Domain 1), inhibitor 90 uM): 2; Inhibition Results (Level) ([7]; inhibitor 90 uM): 0; Inhibition Results (Level) ([11]; kinase FGFR2 (Part I, plate G8, Domain 1), inhibitor 90 uM): 2; Inhibition level ([11]; concentration not given): 0; Inhibition level ([12]; concentration not given): 2; Inhibition Results (Level) ([13]; inhibitor 90 uM): 2; Inhibition level ([14]; concentration not given): 2; Inhibition Results (Level) ([15]; inhibitor 90 uM): 0

Structure (SMILES) | Inhibition level [1] | Inhibition level [2, 16] | Inhibition level ([3]; inhibitor 100 uM) | Inhibition level ([4]; inhibitor 100 uM) | Inhibition Results (Level) ([5]; inhibitor 100 uM) | Inhibition Results (Level) [6, 17] | Inhibition Results (Level) ([7]; inhibitor 100 uM) | Inhibition Results (Level) [8] | Inhibition level ([9]; inhibitor 100 uM) | Inhibition level [10] | Inhibition Results (Level) [11, 18] | Inhibition level ([11]; inhibitor 100 uM) | Inhibition level ([12]; inhibitor 100 uM) | Inhibition Results (Level) ([13]; inhibitor 100 uM) | Inhibition level ([14]; inhibitor 100 uM) | Inhibition Results (Level) ([15]; inhibitor 100 uM) | Inhibition level ([3]; concentration not given) | Inhibition level ([9]; concentration not given) | other results
N#C/C(=C/c1ccc(O)c(O)c1)C(=O)NCc1ccccc1 [AG 490] | 2 | 2 | 2 | 0 | 2 | 2 | 2 | 2 | 0 | 2 | 2 | 2 | 1 | 2 | 2 | 2 | – | – | –
O=c1c(O)c(-c2ccc(O)c(O)c2)oc2cc(O)cc(O)c12 [Quercetin] | – | – | – | – | – | – | 1 | – | – | – | 0 | – | – | 0 | – | – | – | – | Inhibition Results (Level) ([3]; inhibitor 100 uM): 0; Inhibition Results (Level) ([4]; inhibitor 100 uM): 0; Inhibition Results (Level) ([9]; inhibitor 100 uM): 0; Inhibition Results (Level) [10]: 1; Inhibition Results (Level) [11, 20]: 0; Inhibition Results (Level) ([12]; inhibitor 100 uM): 2
CN[C@@H]1C[C@H]2O[C@@](C)([C@@H]1OC)n1c3ccccc3c3c4c(c5c6ccccc6n2c5c31)C(=O)NC4 [Staurosporine] | – | – | – | – | – | – | – | – | – | – | – | – | – | – | – | – | 2 | 0 | Inhibition level [2]: 2; Inhibition Results (Level) ([5]; inhibitor 21.5 uM): 0; Inhibition Results (Level) [6]: 2; Inhibition Results (Level) ([7]; inhibitor 21.5 uM): 0; Inhibition Results (Level) ([13]; inhibitor 21.5 uM): 2

Source: patent publication US20090099029A1, “Methods and substrates for conducting assays” (Invitrogen Corporation, priority 2005, published 2009)
